In test [1] the test system is Healthy human volunteers. Kind of test: Effect of iv infusion on satiety, hunger, fullness, appetite (visual analogue scale) and ad libitum energy intake in a double-blind crossover trial. Format: in vivo. The text has this: Healthy human volunteers (20 subjects) were in a double-blind crossover trial given an iv infusion of 50 pmol/(kg·h) of GLP-1(7-36)amide or saline on separate, but otherwise identical experimental days. The infusion was started at 9.00 and lasted until 15.00. At 9.45 the subjects received a fixed amount of breakfast and at 14.15 they had lunch of an identical composition but ad libitum. The subjects rated their feeling of satiety, hunger, fullness and appetite on a visual analogue scale every half hour. The results are given below:
The energy intake of each subjects was measured. The intakes were 3.9 MJ with GLP-1 and 4.3 MJ with Saline resulting in a p-value of 0.009.

Test [2] concerns rats. Particulars: cited from earlier work.
In test [3] the test system is Mice. Kind of test: Appetite suppression in mice: sucrose consumption immediately after ip injection (Example 2). Format: in vivo. As to conditions: mice fasted two days, ip 85 micrograms (3.4 mg/kg) in saline, tested immediately after injection, 10 minute period; p-value 0.002. The procedure: Mice were deprived of their normal food for two days and given free access to a 20% sucrose solution on the first day of food deprivation. After the two day food deprivation period, the mice were injected intraperitoneally with 0.5 ml of a solution containing the test substance. Immediately after injection, individual mice were placed in one of eight 15 cm square test boxes with a stainless steel grid floor and a glass drinking tube which projected into the box. […] Consumption of the sucrose solution was measured over a 10 minute period by electronically recording the total amount of contact with the sucrose solution during the test session. The degree of appetite suppression produced by a given test substance was determined by statistical comparison of the mean duration of sucrose consumption by control (vehicle treated) mice with that of mice treated with a test substance. The degree of appetite suppression in a treated group of mice was expressed as percent difference between the test and control group's response duration means. […]

Test [4] relates to Mice. Kind of test: Appetite suppression in mice: Complan consumption after subcutaneous injection (Example 4). Format: in vivo. Particulars: p<0.001. As to the method:
The test method was as described in Example 3 except that the mice were pre-exposed to formula milk (Complan®—a nutritionally complete infant milk substitute) for one day, then fasted one day. On the test day, consumption of Complan® was measured for each mouse during a 10 min period.
Mice were tested for appetite suppression by subcutaneous injection of GLP-1(7-36)amide dissolved in phosphate buffered saline.

Setting [5] is: iv infusion 50 pmol/(kg·h), 9.00 to 15.00, 20 healthy subjects, rated every half hour, p = 0.007.

The values below come from US20030232754A1, “Use of GLP-1 peptides” (priority 1996, published 2003).

Where two headings read alike, the source gives them in different places. No end group written: not given here.

GLP-1(1-37) came in with an Energy intake in test [1] (ad libitum lunch during iv infusion 50 pmol/(kg·h), saline 4.3 MJ, p-value 0.009) of 3.9 mJ. The “Satiety (visual analogue scale rating) versus saline” value in test [1] (iv infusion 50 pmol/(kg·h), 9.00 to 15.00, 20 healthy subjects, rated every half hour, p = 0.006) is “GLP-1 > Saline, p = 0.006”. Besides, the “Appetite (visual analogue scale rating) versus saline” value in test [1] (setting [5]) is on record as “GLP-1 < Saline, p = 0.007”. Moreover, the “Hunger (visual analogue scale rating) versus saline” value in test [1] (setting [5]) was “GLP-1 < Saline, p = 0.007”. Moreover, the “Fullness (visual analogue scale rating) versus saline” value in test [1] (iv infusion 50 pmol/(kg·h), 9.00 to 15.00, 20 healthy subjects, rated every half hour, p = 0.010) is recorded as “GLP-1 > Saline, p = 0.010”. Besides, the “Effect on food intake” value in test [2] (intracerebroventricular administration, Tang-Christensen et al. 1996) is recorded as “profound effect”; in test [2] (intracerebroventricular administration, Turton et al. 1996), “profound effect”; in test [2] (peripheral administration, Tang-Christensen et al. 1996), “no significant effect”.

In the case of “GLP-1(1-36)amide (HDEFERHAEGTFTSDVSSYLEGQAAKEFIAWLVKGR-NH2; UniProt P01275 92-127, looked up, fragment) [fragment 1-36 of GLP-1 as C-terminal amide]”, in test [2] (route not stated, Tang-Christensen et al. 1996), the “Effect on food intake” value was “no effect”.

In the case of GLP-1(7-36)amide, the “Suppression of sucrose consumption” value in test [3] is 60%. The “Suppression of feeding (Complan consumption)” value in test [4] (1 mg/kg, 30 min after injection) turned out to be 45%. In test [4] (highest dose tested 20 mg/kg), the “Maximum effect, suppression of feeding (Complan consumption)” value stood at 60%.
